In PMC6093661, “Vitamin E hydroquinone is an endogenous regulator of ferroptosis via redox control of 15-lipoxygenase” (PLoS ONE, 2018):
“And” between values parts separate entries of the source, which are not always exact repeats. Identical values can stand only once. Like-named read-outs stand apart in the source and are kept apart here.

Key:
[1] = test system: Mouse striatal Q7 cells (STHdhQ7/Q7); test: RSL3 ferroptosis cell rescue (cellular survival assay, CellTiter-Glo)
[2] = Radical-trapping antioxidant (RTA) activity assay in DOPC liposomes; details: for Radical Trapping Assay AUC (Rel. Control): 50 μM compound, 2 mol% in DOPC liposomes, BODIPY 581/591 C11 quenching, liposome-only control = 1; for RTA AUC fold greater than αTQ and αTHQ: DOPC liposomes, AUC relative to liposome only control
[3] = test system: 15-HETE release from Q7 cells; test: Targeted arachidonate metabolite release cellular assay (RSL3-treated Q7 cells); assay type: cell-based, mouse
Procedure: Ferroptosis was initiated by RSL3 (2 μM final concentration) in Q7 cells as described above. The protective activity of co-treated compounds was assessed also as described above. Four to five hours after RSL3 treatment, the conditioned medium was collected into 1.2-mL cluster tubes containing ice-cold acetonitrile at a ratio of 1:2. Tubes were snap frozen on dry ice and stored at -80°C.
Prior to analysis, samples were thawed on wet ice and then vortexed briefly. Samples were centrifuged at 4000 rpm for 15min at 4°C. Supernatant (40 μL) was transferred to a 96-well injection plate and 10 μL of both internal standard and HPLC grade water were added. A Shimadzu Nexera MP system coupled to a Sciex 6500 Qtrap and configured for micro-flow was used to analyze all samples. Samples were maintained at 4°C in the Nexera MP autosampler for the duration of the analytical run.
A Thermo Gold-C8 column (1.9 μm, 1.0 x 100 mm) operated at 45°C was used for chromatographic separation. The total run time of the liquid chromatography method was 10 min. Mobile phase A consisted of water with 0.1% formic acid. Mobile phase B was composed of 0.1% formic acid in 3:1 acetonitrile:isopropyl alcohol. Gradient elution was employed, with mobile phase B being ramped from 5% at 0min, to 50% at 2 min, and finally 98% at 7.5 min. Electrospray conditions for the μLC-ESI-MS/MS method were optimized for a flow rate of 125 μL/min and were as follows: Ion spray voltage was set to -4500 V, temperature of 250°C, curtain gas of 20, CAD gas of 10, and ion source gas 1 and 2 of 20 and 40 psi, respectively. Analyzer parameters were optimized for each compound using a combination of manual tuning and compound optimization. The following MRM transitions were used to quantify concentrations of 15-HETE, 12-HETE and Arachidonic Acid (AA). 15-HETE: 319→219; 12-HETE: 319→179; AA: 303→259.

Q7 cells [4] = test: Cellular lipid oxidation assay (BODIPY 581/591 C11, RSL3-treated Q7 cells); assay type: cell-based, mouse; details: RSL3 2 μM, 6-point titration, time-lapse microscopy
Procedure: Ferroptosis was induced by RSL3 (2 μM final concentration) in Q7 cells as described above. The protective activity of co-treated compounds was assessed also as described above. The rate of cellular lipid oxidation after GPX4 inhibition was assessed by monitoring the time-dependent changes in green fluorescence of cells pre-labeled with BODIPY™ 581/591 C11 dye (5 μM, 30-minute labeling period; Thermo Fisher/Invitrogen) using the IncuCyte S3 live-cell imaging apparatus (Sartorius) using a 10x objective. Cells (three images per field; at least three replicate wells per condition) were imaged once hourly for up to 18 hours after compound and RSL3 addition. Quantification of cell images was performed using the IncuCyte Zoom software using the Basic Analyzer tool which utilized an algorithm that calculated the total green-positive area per well where “green-positive” was defined as 1.45 times the local background-subtracted fluorescent signal. After a 2-3-hour lag period post-RSL3 treatment, the cellular green fluorescence signal began increasing. The rate of change in total green-positive area per well from 3–9 hours post-compound treatment was calculated, then expressed relative to that observed in the RSL3-only control treatment group, which was defined as 100%.

[5] = ORAC (oxygen radical absorbance capacity) assay; details: average of 25 and 12.5 μM compound; mean, SEM, n = 6
Procedure: ORAC assay kits were purchased from Cell Biolabs. Assays were performed per the manufacturer’s instructions for lipophilic samples with minor modifications. DMSO stock solutions of compounds were diluted in an anaerobic glovebox to final concentrations of 25 and 12.5 μM in triplicate. A standard curve of Trolox® between 0–100 μM in triplicate per concentration was also generated on each assay plate. Diluted compounds and standards were removed from the glovebox and reactions initiated by addition of aerobic fluorescein reagent and radical initiator. Fluorescein fluorescence was monitored at excitation wavelength of 480 nm and emission wavelength of 520 nm every minute for one hour. AUC analysis was performed as described in the kit protocol. The “Trolox equivalents” at each concentration of test compound were calculated and the average Trolox equivalents at the two compound concentrations are presented. The errors were determined by propagating errors from the SEMs of the triplicate determinations to the averages across the two triplicate determinations.

[6] = biological target: T1, Rabbit 15-lipoxygenase (rLOX15) (Oryctolagus cuniculus, UniProt P12530); test: Lipoxygenase enzyme inhibition assay; assay type: biochemical; details: for inhibition of rabbit 15-LO enzyme activity: arachidonic acid as substrate, up to 100 μM; for IC50 / activity at 100 µM: rabbit 15-LO; for IC50: 50 μM arachidonic acid substrate; for activity at 100 µM: compound 100 μM, read-out: 15-Lipoxygenase Enzyme Assay % activity at 100 μM
T1 construct: purchased Enzo Life Sciences, Inc. BML-PL015
T1 sequence (P12530 1-663): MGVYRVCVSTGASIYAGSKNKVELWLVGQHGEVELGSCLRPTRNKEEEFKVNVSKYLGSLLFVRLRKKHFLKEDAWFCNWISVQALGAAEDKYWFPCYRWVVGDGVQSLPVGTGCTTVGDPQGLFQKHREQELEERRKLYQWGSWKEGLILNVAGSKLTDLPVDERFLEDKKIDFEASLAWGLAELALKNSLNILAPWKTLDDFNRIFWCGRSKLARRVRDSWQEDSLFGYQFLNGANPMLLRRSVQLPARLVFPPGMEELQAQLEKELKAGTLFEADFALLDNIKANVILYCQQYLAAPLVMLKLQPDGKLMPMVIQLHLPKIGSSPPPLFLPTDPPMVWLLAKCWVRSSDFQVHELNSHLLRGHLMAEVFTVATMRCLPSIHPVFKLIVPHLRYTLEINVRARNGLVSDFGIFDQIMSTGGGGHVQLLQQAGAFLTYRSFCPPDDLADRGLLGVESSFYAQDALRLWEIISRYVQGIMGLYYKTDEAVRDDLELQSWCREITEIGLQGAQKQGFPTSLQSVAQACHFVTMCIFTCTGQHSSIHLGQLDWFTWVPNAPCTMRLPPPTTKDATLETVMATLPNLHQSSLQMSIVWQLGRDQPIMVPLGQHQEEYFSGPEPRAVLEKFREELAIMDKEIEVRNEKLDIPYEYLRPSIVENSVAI
Procedure: Rabbit 15-lipoxygenase (rLOX15, part number BML-PL015, lot number 3-P9009a) was obtained from Enzo Life Sciences, Inc. Sodium cholate (part number C6445, lot number 094K0209) was obtained from Sigma-Aldrich.
Stock solutions of test compounds were prepared in DMSO and then diluted to final assay concentrations in cholate mix such that final cholate and DMSO concentrations were maintained at 0.2%.

Q7 cells [7] = test: Cellular quantification of αTCC in Q7 cells (LC-MS/MS, succinate capping); assay type: in vitro ADME, mouse; details: 6 technical replicates in each of 4 experiments
Procedure: Due to poor ionization of αTCC, the succinate capping method was used for quantification of the succinate ester derivative formed by cell lysis with 100 mg/mL succinic anhydride in 95:5 (acetonitrile:triethylamine).
Q7 cells were cultured in standard culture medium for 18 hours prior to compound addition. After the specified treatment time, the culture medium was removed and adherent cells were washed with PBS. The wash was removed and adherent cells were harvested by adding 1 mL of 100 mg/mL succinic anhydride in 95:5 (acetonitrile:triethylamine) followed by immediate cell scrapping. After cell scrapping, samples were transferred to a 1.5 mL Eppendorf tube, vortexed for 15 seconds, and kept on wet ice until all samples were harvested. […]
Samples were analyzed using a developed method on a Shimadzu 30AD using micro-flow with a Shimadzu SIL-30AC autosampler, and coupled to an AB Sciex 6500+ QTRAP mass spectrometer. […] Analyzer parameters were optimized for each compound using a combination of manual tuning and compound optimization. αTCC was measured as αTCC-succinate. […]
A Phenomenex Kinetex C18 (2.1 x 50 mm, 1.3 µm) column using a reverse phase gradient mobile phase method was used for chromatographic separation. […] Data were analyzed using Sciex Analyst Chromatography software, version 1.6.2 and Sciex MultiQuant software. […]

Q7 cells [8] = test: Intracellular quantification of αT, αTQ and αTHQ in Q7 cells (LC-MS/MS, succinate capping); details: αTQ 10 μM, 24 h
Q7 cells [9] = details: mouse
[10] = Mus musculus, 18 h, read-out: RSL3 Ferroptosis Cell Assay Average EC50, Q7 cells, RSL3 2 μM, 18 h co-treatment, CellTiter-Glo 2.0
[11] = read-out: RSL3 Ferroptosis Cell Assay Average EC50, Q7 cells, RSL3 2 μM, 18 h co-treatment, CellTiter-Glo 2.0

SMILES	EC50 [1, 10] [µM]	EC50 [1, 11] [µM]	Radical Trapping Assay AUC (Rel. Control) [2]	RTA AUC fold greater than αTQ and αTHQ [2]	effect on RSL3-induced lipid oxidation (BODIPY 581/591 C11 oxidation) (Q7 cells [4])	ORAC Antioxidant Activity Assay Trolox Equiv. [5]	inhibition of rabbit 15-LO enzyme activity [6]	IC50 [6] [µM]	activity at 100 µM [6] [%]	other results
Cc1c(C)c2c(c(C)c1O)CC[C@@](C)(CCC[C@H](C)CCC[C@H](C)CCCC(C)C)O2 [αT, α-tocopherol, reference compound]	5.16	5.2 ± 2.8	5.123	2.5–4 fold	prevented	0.073 Trolox Equiv. and 0.073 ± 0.008 Trolox Equiv.	did not	> 100	78	reduction of RSL3-induced 15-HETE production ([3]; RSL3 co-treatment, compound 10 μM): 19%
Cc1c(C)c2c(c(C)c1O)CCC(C)(CCCC(C)CCCC(C)CCCC(C)C)C2 (stereo not drawn) [αTCC, 1,3,4,6-Tetramethyl-6-(4,8,12-trimethyltridecyl)-5,6,7,8-tetrahydronaphthalen-2-ol]	> 30	–	4.706	2.5–4 fold	–	0.075 Trolox Equiv. and 0.075 ± 0.008 Trolox Equiv.	did not	> 100	77	rescue at 30 μM ([1]; Q7 cells, RSL3 2 μM, 30 μM highest concentration tested, mean ± SD, N = 7): 42 ± 21%; cellular exposure of αTCC (Q7 cells [7]): > 50 µM
CC1=C(C)C(=O)C(CC[C@](C)(O)CCC[C@H](C)CCC[C@H](C)CCCC(C)C)=C(C)C1=O [αTQ, α-tocopherol quinone]	0.233	0.23 ± 0.1	1.217	–	prevented	0.044 Trolox Equiv.	did not	> 100	75	fold more potent than αT in preventing ferroptotic cell death ([1]; Q7 cells, RSL3, EC50 ratio vs αT): 22 fold; cellular exposure of αT after αTQ supplementation (back-conversion) (Q7 cells [8]): unaffected; cellular αTQ exposure after αTQ supplementation (Q7 cells [8]): over 250 μM; fold increase in cellular αTHQ after αTQ supplementation (Q7 cells [9]): > 600 fold; fold increase in cellular αTQ after αTQ supplementation (Q7 cells [9]): > 300 fold; IC50 ([3]; Mus musculus, RSL3 2 μM, conditioned medium 4-5 h, read-out: IC50 for RSL3-induced cellular release of 15-HETE): 0.6 µM; effect on 12-HETE levels ([3]; RSL3, compound 5 μM): not altered; effect on cellular or released AA levels ([3]; RSL3, compound 5 μM): no effect; effect on RSL3-dependent induction of cellular and released 15-HETE ([3]; compound 5 μM): inhibited
